Data published in ChEMBL document CHEMBL4118122, “Identification and biological evaluation of thiazole-based inverse agonists of RORγt” (Bioorg Med Chem Lett, 2018).
Values after ≈ are worked out from the molar mass of the structure shown.

What was measured:
[1] = target: T1, Nuclear receptor ROR-beta (Homo sapiens, UniProt Q92753); assay: Binding affinity to recombinant human RORbeta LBD (201 to 452 residues) expressed in Escherichia coli BL21 (DE3) GOLD by 1,8-ANS dye-based thermofluor assay
T1 sequence (Q92753 whole entry): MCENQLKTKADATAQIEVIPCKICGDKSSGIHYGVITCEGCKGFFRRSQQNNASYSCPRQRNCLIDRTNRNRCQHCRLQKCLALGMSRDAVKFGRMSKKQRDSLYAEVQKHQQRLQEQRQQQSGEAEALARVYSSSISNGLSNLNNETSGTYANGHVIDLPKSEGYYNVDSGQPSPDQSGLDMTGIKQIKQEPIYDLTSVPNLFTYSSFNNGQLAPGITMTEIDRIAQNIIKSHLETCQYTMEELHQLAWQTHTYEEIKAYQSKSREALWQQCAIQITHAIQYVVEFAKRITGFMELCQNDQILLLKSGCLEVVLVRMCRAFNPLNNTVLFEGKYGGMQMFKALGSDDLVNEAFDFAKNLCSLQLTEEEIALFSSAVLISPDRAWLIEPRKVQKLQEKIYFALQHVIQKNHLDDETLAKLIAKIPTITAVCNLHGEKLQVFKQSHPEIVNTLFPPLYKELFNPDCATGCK

PXR (NR1I2) [2] = target: T2, PXR (NR1I2) (Homo sapiens, UniProt O75469); assay: […] at PXR LBD (unknown origin) expressed in HEK293 cells […] at 5 uM after 16 hrs by luciferase reporter gene assay relative to rifampicin; type: ADME, cell-based; settings: HEK293 cells expressing PXR LBD, read-out: Efficacy
T2 sequence (O75469 whole entry): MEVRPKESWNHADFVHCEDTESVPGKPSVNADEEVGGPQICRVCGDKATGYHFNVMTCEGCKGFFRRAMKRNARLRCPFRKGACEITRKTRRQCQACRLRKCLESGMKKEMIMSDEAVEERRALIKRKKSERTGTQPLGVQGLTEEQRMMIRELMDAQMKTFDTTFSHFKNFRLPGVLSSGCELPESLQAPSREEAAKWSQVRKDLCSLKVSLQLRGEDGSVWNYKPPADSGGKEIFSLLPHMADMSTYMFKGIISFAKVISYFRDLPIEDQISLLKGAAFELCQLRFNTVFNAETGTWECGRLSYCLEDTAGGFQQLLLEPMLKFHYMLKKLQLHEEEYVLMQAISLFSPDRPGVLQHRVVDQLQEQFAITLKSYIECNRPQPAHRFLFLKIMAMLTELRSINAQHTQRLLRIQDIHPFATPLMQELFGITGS

PXR (NR1I2) [3] = target: T2, PXR (NR1I2); assay: […] at PXR LBD (unknown origin) expressed in HEK293 cells […] at 1 uM after 16 hrs by luciferase reporter gene assay relative to rifampicin; type: ADME, cell-based; settings: HEK293 cells expressing PXR LBD, read-out: Efficacy
[4] = Thermodynamic solubility of the compound in 30 mM phosphate buffer at 10 mM at pH 7 after 2 to 5 days by UV-HPLC analysis; type: physicochemical; settings: read-out: Therm_solubility
[5] = Half life in human microsomes; type: ADME, Microsome
[6] = Thermodynamic solubility of the compound in fasted state simulated intestinal […] after 2 to 5 days by UV-HPLC analysis; type: physicochemical; settings: read-out: Therm_solubility
Cytochrome P450 2D6 = Cytochrome P450 2D6 (Homo sapiens, UniProt P10635); assay: Inhibition of CYP2D6 (unknown origin); type: ADME
Chain of Cytochrome P450 2D6 (P10635 whole entry): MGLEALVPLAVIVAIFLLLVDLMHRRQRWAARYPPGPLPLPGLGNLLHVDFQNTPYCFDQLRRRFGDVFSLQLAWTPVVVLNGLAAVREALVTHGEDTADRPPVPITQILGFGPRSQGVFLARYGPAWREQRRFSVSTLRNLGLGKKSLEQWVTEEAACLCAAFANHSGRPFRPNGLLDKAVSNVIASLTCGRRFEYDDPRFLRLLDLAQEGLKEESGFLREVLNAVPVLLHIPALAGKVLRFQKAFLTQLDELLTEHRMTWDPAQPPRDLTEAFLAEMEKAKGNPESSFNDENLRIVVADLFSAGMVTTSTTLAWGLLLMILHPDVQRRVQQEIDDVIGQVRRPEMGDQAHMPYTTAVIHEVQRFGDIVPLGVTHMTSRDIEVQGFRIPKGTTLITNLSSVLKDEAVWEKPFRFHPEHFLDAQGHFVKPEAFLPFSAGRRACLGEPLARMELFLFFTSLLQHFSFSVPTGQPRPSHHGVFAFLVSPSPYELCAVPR

Cytochrome P450 3A4 = Cytochrome P450 3A4 (Homo sapiens, UniProt P08684); assay: Inhibition of CYP3A4 (unknown origin); type: ADME
Chain of Cytochrome P450 3A4 (P08684 whole entry): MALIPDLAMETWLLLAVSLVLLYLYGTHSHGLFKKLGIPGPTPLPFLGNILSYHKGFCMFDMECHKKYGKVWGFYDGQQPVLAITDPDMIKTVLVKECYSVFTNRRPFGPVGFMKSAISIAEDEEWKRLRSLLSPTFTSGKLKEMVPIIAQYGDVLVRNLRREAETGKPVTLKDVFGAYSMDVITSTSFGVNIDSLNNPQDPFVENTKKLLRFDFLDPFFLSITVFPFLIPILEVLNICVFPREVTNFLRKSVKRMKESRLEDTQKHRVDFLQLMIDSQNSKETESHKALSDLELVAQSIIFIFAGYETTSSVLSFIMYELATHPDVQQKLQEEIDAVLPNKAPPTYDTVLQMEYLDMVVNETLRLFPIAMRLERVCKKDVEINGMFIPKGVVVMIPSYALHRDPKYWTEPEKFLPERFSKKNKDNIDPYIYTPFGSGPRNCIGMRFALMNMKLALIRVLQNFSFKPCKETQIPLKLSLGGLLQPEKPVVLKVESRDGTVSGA

Cytochrome P450 2C8 = target: T3, Cytochrome P450 2C8 (Homo sapiens, UniProt P10632); assay: Inhibition of CYP2C8 (unknown origin); type: ADME
T3 sequence (P10632 whole entry): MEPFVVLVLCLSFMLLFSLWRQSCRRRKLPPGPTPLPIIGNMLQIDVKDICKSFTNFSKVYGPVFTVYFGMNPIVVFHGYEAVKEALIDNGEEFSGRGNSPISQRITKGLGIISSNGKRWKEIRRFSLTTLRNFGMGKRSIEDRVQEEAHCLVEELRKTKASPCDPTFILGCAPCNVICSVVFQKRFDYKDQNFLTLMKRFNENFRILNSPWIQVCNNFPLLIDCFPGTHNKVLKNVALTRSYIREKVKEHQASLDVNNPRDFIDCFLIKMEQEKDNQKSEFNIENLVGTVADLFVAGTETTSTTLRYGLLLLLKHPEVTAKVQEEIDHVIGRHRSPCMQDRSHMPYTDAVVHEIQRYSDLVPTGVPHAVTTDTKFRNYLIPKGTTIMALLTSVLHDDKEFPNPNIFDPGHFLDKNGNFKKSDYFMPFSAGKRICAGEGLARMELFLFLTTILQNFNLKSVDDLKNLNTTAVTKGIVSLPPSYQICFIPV

Cytochrome P450 2C19 = Cytochrome P450 2C19 (Homo sapiens, UniProt P33261); assay: Inhibition of CYP2C19 (unknown origin); type: ADME
Chain of Cytochrome P450 2C19 (P33261 whole entry): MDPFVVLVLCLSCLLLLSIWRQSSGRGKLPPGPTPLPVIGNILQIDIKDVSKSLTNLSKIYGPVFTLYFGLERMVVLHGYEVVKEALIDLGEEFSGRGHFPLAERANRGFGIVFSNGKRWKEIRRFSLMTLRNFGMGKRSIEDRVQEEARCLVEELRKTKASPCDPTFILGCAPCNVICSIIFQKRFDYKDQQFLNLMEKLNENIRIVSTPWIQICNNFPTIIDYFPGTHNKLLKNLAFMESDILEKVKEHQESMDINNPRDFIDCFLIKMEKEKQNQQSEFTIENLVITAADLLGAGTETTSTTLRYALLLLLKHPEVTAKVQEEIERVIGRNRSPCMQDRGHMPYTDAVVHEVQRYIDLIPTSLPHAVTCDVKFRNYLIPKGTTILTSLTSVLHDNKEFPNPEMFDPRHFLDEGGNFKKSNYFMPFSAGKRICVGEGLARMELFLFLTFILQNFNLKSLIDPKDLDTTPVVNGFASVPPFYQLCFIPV

Cytochrome P450 2C9 = Cytochrome P450 2C9 (Homo sapiens, UniProt P11712); assay: Inhibition of CYP2C9 (unknown origin); type: ADME
Chain of Cytochrome P450 2C9 (P11712 whole entry): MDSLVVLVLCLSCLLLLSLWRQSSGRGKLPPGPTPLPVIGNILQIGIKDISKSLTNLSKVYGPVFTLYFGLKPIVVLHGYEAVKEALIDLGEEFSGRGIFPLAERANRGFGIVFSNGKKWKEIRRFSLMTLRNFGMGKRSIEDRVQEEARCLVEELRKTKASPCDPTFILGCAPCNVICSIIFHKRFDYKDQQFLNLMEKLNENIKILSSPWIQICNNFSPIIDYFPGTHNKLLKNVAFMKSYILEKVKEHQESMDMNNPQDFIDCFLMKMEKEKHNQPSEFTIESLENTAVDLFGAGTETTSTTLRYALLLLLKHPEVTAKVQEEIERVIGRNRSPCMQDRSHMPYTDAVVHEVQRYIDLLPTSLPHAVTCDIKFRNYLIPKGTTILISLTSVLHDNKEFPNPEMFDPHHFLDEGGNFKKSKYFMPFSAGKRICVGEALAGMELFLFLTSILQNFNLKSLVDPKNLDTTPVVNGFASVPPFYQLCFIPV

Cytochrome P450 1A2 = target: T4, Cytochrome P450 1A2 (Homo sapiens, UniProt P05177); assay: Inhibition of CYP1A2 (unknown origin); type: ADME
T4 sequence (P05177 whole entry): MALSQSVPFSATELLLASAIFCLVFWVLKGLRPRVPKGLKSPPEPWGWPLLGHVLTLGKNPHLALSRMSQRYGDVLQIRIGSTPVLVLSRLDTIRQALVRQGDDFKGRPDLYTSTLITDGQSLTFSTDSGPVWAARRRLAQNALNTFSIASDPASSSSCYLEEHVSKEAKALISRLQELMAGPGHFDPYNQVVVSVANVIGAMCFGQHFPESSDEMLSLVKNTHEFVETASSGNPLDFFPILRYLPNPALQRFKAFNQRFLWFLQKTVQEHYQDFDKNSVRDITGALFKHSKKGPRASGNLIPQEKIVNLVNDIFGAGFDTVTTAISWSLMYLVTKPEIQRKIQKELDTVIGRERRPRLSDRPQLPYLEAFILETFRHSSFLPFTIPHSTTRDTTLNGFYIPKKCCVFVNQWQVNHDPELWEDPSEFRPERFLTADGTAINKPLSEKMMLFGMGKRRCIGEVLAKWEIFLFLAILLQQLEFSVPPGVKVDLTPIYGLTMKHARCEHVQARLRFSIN

[7] = Half life in rat microsomes; type: ADME, Microsome
[8] = Volume of distribution at steady state in Sprague-Dawley rat at 1 mg/kg, iv; type: ADME, organism-based; settings: in vivo, read-out: Vdss
[9] = AUC (0 to infinity) in Sprague-Dawley rat at 1 mg/kg, iv; type: ADME, organism-based; set-up: dose 1 mg/kg, time infinity, route intravenous; settings: in vivo
[10] = Half life in Sprague-Dawley rat at 1 mg/kg, iv; type: ADME, organism-based; settings: in vivo
[11] = Initial plasma concentration in Sprague-Dawley rat at 1 mg/kg, iv; type: ADME, organism-based
[12] = Clearance in Sprague-Dawley rat at 1 mg/kg, iv; type: ADME, organism-based; settings: in vivo
[13] = AUC (0 to infinity) in Sprague-Dawley rat at 5 mg/kg, po; type: ADME, organism-based; set-up: dose 5 mg/kg, route oral, time infinity; settings: in vivo
[14] = Cmax in Sprague-Dawley rat at 5 mg/kg, po; type: ADME, organism-based; set-up: dose 5 mg/kg, route oral; settings: in vivo
[15] = Tmax in Sprague-Dawley rat at 5 mg/kg, po; type: ADME, organism-based; settings: in vivo
[16] = Oral bioavailability in Sprague-Dawley rat at 5 mg/kg; type: ADME, organism-based; settings: in vivo
[17] = Terminal half life in Sprague-Dawley rat at 5 mg/kg, po; type: ADME, organism-based; settings: in vivo, read-out: beta t1/2 (converted)

Row | SMILES | Kd [1] | Emax at 16 h, 5 µM (PXR (NR1I2) [2]) | Emax at 16 h, 1 µM (PXR (NR1I2) [3]) | solubility thermodynamic at 10000 µM [4] | half-life [5] | INH (Cytochrome P450 2D6) | INH (Cytochrome P450 3A4) | INH (Cytochrome P450 2C8) | INH (Cytochrome P450 2C19) | INH (Cytochrome P450 2C9) | INH (Cytochrome P450 1A2) | half-life [7] | further results
1 | CC(C)(C)NS(=O)(=O)c1ccc(-c2sc(C(=O)N3CC4(C3)CS(=O)(=O)C4)nc2CC2CCCCC2)c2ccccc12 | > 85 µM |  |  |  |  |  |  |  |  |  |  |  | 
2 | CC(C)NS(=O)(=O)c1ccc(-c2sc(C(=O)N[C@H]3C[C@H](C(=O)O)C3)nc2CC2CCCCC2)c(C(F)F)c1Cl |  | 113% | 66% | 11 µM (≈ 6.65 µg/mL) | 1.88 h | > 10 µM | > 10 µM | 6.2 µM | > 10 µM | 7.6 µM | > 10 µM | 1.42 h | solubility thermodynamic [6]: > 400 µM

Further lines, with some results ahead:

Row | Kd [1] | Emax at 16 h, 5 µM (PXR (NR1I2) [2]) | Emax at 16 h, 1 µM (PXR (NR1I2) [3]) | solubility thermodynamic at 10000 µM [4] | half-life [5] | INH (Cytochrome P450 2D6) | INH (Cytochrome P450 3A4) | INH (Cytochrome P450 2C8) | INH (Cytochrome P450 2C19) | INH (Cytochrome P450 2C9) | INH (Cytochrome P450 1A2) | half-life [7] | SMILES | further results
3 | > 76 µM | 68% | 60% |  |  |  |  |  |  |  |  |  | C[C@H](NS(=O)(=O)c1ccc(-c2sc(C(=O)NCC(C)(C)O)nc2C2CCCCC2)c(Cl)c1Cl)C(F)(F)F | 
4 | > 69 µM | 131% | 99% | < 4 µM | 1.67 h | > 10 µM | > 10 µM | > 10 µM | > 10 µM | 2.9 µM | > 10 µM | 2.35 h | C[C@H](NS(=O)(=O)c1ccc(-c2sc(C(=O)NC3CCS(=O)(=O)CC3)nc2CC2CC2)c2ccccc12)C(F)(F)F | Vd [8]: 3.4 L/kg; AUC(0-inf) [9]: 792 ng·h/mL; half-life [10]: 3.8 h; C0 [11]: 470 ng/mL; clearance [12]: 21.6 mL/min/kg; AUC(0-inf) [13]: 1700 ng·h/mL; Cmax [14]: 276 ng/mL; Tmax [15]: 1.7 h; bioavailability [16]: 42.5%; half-life [17]: 2.6 h
5 | > 78 µM | 122% | 69% |  |  |  |  |  |  |  |  |  | C[C@H](NS(=O)(=O)c1ccc(-c2sc(C(=O)NCC(C)(C)O)nc2-c2cccc(F)c2)c(Cl)c1Cl)C(F)(F)F | 
